Laboratory results as given in ChEMBL document CHEMBL1133500, “Active site binding modes of HIV-1 integrase inhibitors” (J Med Chem, 2000).

Key:
[1] = Inhibitory activity against ASV (avian sarcoma virus) integrase; Range 40-350 uM
[2] = target: T1, Human immunodeficiency virus type 1 integrase (Human immunodeficiency virus 1, UniProt Q7ZJM1)
[3] = target: T1, Human immunodeficiency virus type 1 integrase; remark: listed apart in the source

T1 sequence (Q7ZJM1 whole entry): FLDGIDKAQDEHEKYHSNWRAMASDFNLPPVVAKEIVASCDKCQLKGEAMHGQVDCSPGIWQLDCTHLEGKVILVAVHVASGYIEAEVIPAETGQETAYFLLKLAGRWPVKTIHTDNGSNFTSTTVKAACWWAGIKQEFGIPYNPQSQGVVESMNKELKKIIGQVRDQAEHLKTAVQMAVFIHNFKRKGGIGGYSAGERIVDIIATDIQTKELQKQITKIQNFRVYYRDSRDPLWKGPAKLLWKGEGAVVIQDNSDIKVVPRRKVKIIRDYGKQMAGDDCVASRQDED

Row | SMILES | IC50 [1] [µM] | Kd [2] [µM] | IC50 [3] [µM]
1 | CC(=O)Nc1cc(S(=O)(=O)O)cc2cc(S(=O)(=O)O)cc(O)c12 | < 350 |  | 
2 | O=C1c2ccc(O)c(O)c2C(=O)c2c(O)ccc(O)c21 [QUINALIZARIN] |  | < 15 | < 17
